# Like-named read-outs stand apart in the source and are kept apart here.
# Key:
# [1] = system: Jeko-1 and JVM-2 cells; experiment: Drug combination concentration matrix, cell viability by ATP quantification, Bliss synergy matrix; type: cell-based, human; details: 96 h
# Experimental: Jeko-1 and JVM-2 cells were treated with increasing concentrations of ironomycin combined with ibrutinib (BTK inhibitor) for 96 h and cell viability was tested by ATP quantification to obtain the viability matrix. The synergy matrix was calculated as described in Material and Methods.
# Jeko-1 and JVM-2 cells were treated with increasing concentrations of ironomycin combined with Venetoclax (BCL2 inhibitor) for 96 h and cell viability was tested by ATP quantification to obtain the viability matrix. The synergy matrix was calculated as described in Material and Methods.
# Jeko-1 and JVM-2 cells were treated with increasing concentrations of ironomycin combined with doxorubicin for 96 h and cell viability was tested by ATP quantification to obtain the viability matrix. The synergy matrix was calculated as described in Material and Methods.
# The interaction between the drugs tested in vitro was investigated with a concentration matrix test, in which increasing concentration of each single drug were assessed with all possible combinations of the other drugs. For each combination, the percentage of expected growing cells in the case of effect independence was calculated according to the Bliss equation (Combes et al., 2019): […]
# where fuC is the expected fraction of cells unaffected by the drug combination in the case of effect independence, and fuA and fuB are the fractions of cells unaffected by treatment A and B, respectively. The difference between the fraction of living cells in the cytotoxicity test and the fuC value was considered as an estimation of the interaction effect, with positive values indicating synergism and negative values antagonism.
# Synergy matrix was built with the R package “SynergyFinder”.
# [2] = system: non-MCL cells (normal cells from the microenvironment); type: cell-based, human
# Experimental: (§1) In a first experiment, primary MCL cells were treated with Ironomycin and incubated during 96H with CD40L. The toxicity on MCL cells (A) and non-MCL cells (B) was analyzed by flow cytometry and expressed in % of control. N=5, Median+/−IQR, t-test of pairs. * P<0.05, ** P<0.01, *** P<0.001, **** P<0.0001.
# (§2) Cells are obtained from lymph nodes or blood of 9 patients with MCL.
# (§3) In a first experiment, primary MCL cells were treated with Ironomycin and incubated during 96H with CD40L. The toxicity on MCL cells (FIG. 7 A) and non-MCL cells (FIG. 7 B) was analyzed by flow cytometry and expressed in % of control.
# [3] = system: hematopoietic progenitors
# [4] = system: MINO; experiment: Cell viability assay (CellTiter-Glo, ATP quantification); type: cell-based; details: Homo sapiens
# Experimental: (§4) The 6 MCL cell lines (GRANTA-519, JEKO-1, MINO, MAVER-1, JVM-2 and REC-1) were purchased from the DSMZ (Leibniz-Institut DSMZ—Deutsche Sammlung von Mikroorganismen und Zellkulturen GmbH, Germany). They were maintained according to the supplier's recommendations. Cultures were maintained at 37° C. in a humidified atmosphere with 5% CO2.
# (§5) MCL cell lines were cultured for 4 days in 96-well flat-bottom microtiter plates in RPMI 1640 medium or DMEM medium, 10% or 20% FCS (control medium) in the presence of various compounds. The number of viable cells in culture was determined using the CellTiter-Glo Luminescent Cell Viability Assay from Promega, Madison, Wis., USA using a Centro LB 960 luminometer (Berthold Technologies, Bad Wildbad, Germany).
# (§6) This test is based on quantitation of the intracellular ATP present, which signals the presence of metabolically active cells. Data are expressed as the mean percentage of six replicates, normalized to the untreated control.
# (§7) We investigated the therapeutic interest of iron metabolism inhibitors AM5 (Ironomycin) and AM23. The panel of 6 MCL cell lines were incubated with increasing concentrations of Ironomycin (FIG. 2 A), AM23 (FIG. 2 B) or vehicle for 96H (A). Inhibitory concentration 50% (IC50) was calculated with concentration-response curve after treatment with Ironomycin. Cell viability was examined using quantification of ATP assay. Data are expressed as mean percentage+/−SEM of at least three independent experiments performed in sixplicate. Tables 6 and 7 presenting the inhibitory concentration 50% (IC50) of Ironomycin and AM23 for the 6 MCL cell-lines.
# [5] = system: JVM-2; experiment: as above; type: cell-based; details: Homo sapiens
# Experimental: as §4, §5, §6, §7
# [6] = system: REC-1; experiment: as above; type: cell-based; details: Homo sapiens
# Experimental: as §4, §5, §6, §7
# [7] = system: JEKO-1; experiment: as above; type: cell-based; details: Homo sapiens
# Experimental: as §4, §5, §6, §7
# [8] = system: GRANTA-519; experiment: as above; type: cell-based; details: Homo sapiens
# Experimental: as §4, §5, §6, §7
# [9] = system: MAVER-1; experiment: as above; type: cell-based; details: Homo sapiens
# Experimental: as §4, §5, §6, §7
# [10] = system: Jeko-1 and JVM-2 MCL cell lines; details: deferasirox 80 μM, Ironomycin 50 nM and 500 nM, 72H
# Experimental: Jeko-1 and JVM2 cell line was pre-incubated with or without 80 μM of deferasirox or 50 nM and 500 nM of Ironomycin, respectively, for 4 hours followed by 72H incubation in presence or absence of FeCl3 (100 μM). Apoptosis was assessed using Annexin V-PE staining by flow cytometry.
# AnnexinV-PE staining for apoptosis analysis was performed using the “PE Annexin V Apoptosis Detection Kit I” (559763, Becton Dickinson).
# The inventors further investigated the effect of Iron supplementation on the cell death induced by these treatments. Iron chelator (Deferasirox) concentrations were chosen according the maximal plasmatic concentration achievable in the patient (Nisbet-Brown et al., 2003).
# [11] = system: Cyclin D1, phospho-Rb, CDK4 in Jeko-1 and JVM2 cells; experiment: Western blot of cyclinD1, phospho-Rb, Rb and CDK4; type: cell-based, human; details: 100 nM Jeko-1, 500 nM JVM2, 24H
# Experimental: Jeko-1 and JVM2 cells were treated with Ironomycin (100 nM and 500 nM, respectively) during 24H. Protein levels of cyclinD1, phospho-Rb, Rb and CDK4 were analyzed by western blot and normalized by the β-actin expression level. This Cyclin D1 downregulation is associated with a downregulation of Rb phosphorylation and CDK4 protein levels.
# (§8) The total cell lysates were obtained with RIPA 1× lysis buffer (#9806, Cell Signaling®) according with the supplier recommendations.
# (§9) Protein lysates migrate on 10% polyacrylamide gel (NP-0301, Novex, Life Technologies®), in MOPS 1× running buffer (NP0001, Novex, Life Technologies®) or MES 1× running buffer NP-0002, Novex, Life Technologies®) and proteins are transferred to nitrocellulose membrane (1B301001, I-Blot Transfert Starck, NuPAGE, Life Technologies®). The primary antibodies mouse-anti-phospho-Histone H2A.X (Ser139) clone JBW301 (1/1000, Merck Millipore), rabbit anti-cyclinD1 (#2926, 1/1000, Cell Signaling®), rabbit anti-phospho (S795)-Rb (#9301, 1/1000, Cell Signaling®), mouse anti-Rb (#9309, 1/1000, Cell Signaling®), mouse anti-CDK4 (#2906, 1/1000, Cell Signaling®) were incubated in TBS-Tween 20 0.1% (Tris-Buffered Saline, pH 7.4) with 5% non-fat milk or Bovine serum albumin (Sigma-Aldrich, A7906). Protein levels are objectified by labeling with an anti-β-actin mouse monoclonal antibody (Sigma, A5441, St Louis, Mo., USA 1/1000). Primary antibodies are visualized with secondary anti-rabbit antibodies (Sigma®, A9169) or anti-mouse antibodies (Jackson, 115-036-068) coupled to peroxidase allows the development by chemiluminescence by Western Lightning ECL (NEL121001EA, Perkin Elmer®). Quantification of protein levels was performed with Image J® software (National Institutes of Health, Bethesda, Md., USA).
# Mantle cell lymphoma (MCL) is now recognized as an aggressive B-cell lymphoma with various growth patterns (mantle zone, nodular, or diffuse) and a broad range of cytologic features. […]
# [12] = system: Jeko-1 and JVM-2 cell lines; experiment: Cell cycle analysis by flow cytometry (BrdU/DAPI); type: cell-based, human; details: IC50 Ironomycin for 24 hours
# Experimental: Cells were incubated with vehicle or with IC50 Ironomycin for 24 hours.
# The cell cycle progression was studied by flow cytometry using the Apoptosis, DNA Damage, and Cell Proliferation Kit (562253, Becton Dickinson). Briefly, cells were labeled with bromodeoxyuridine (BrdU), an analog of the DNA precursor thymidine that can be incorporated into newly synthesized DNA and detected with an antibody against BrdU to measure cell proliferation. After this labeling, the cells were fixed, permeabilized and treated with DNase to expose the BrdU epitopes. Following this treatment, cells were simultaneously stained with fluorochrome-labeled anti-BrdU, anti-cleaved Poly ADP-ribose polymerase 1 (PARP), anti-H2AX phosphorylated at serine 139. They were also stained with DAPI to determine DNA content. Finally, cells were resuspended in staining buffer and analyzed by flow cytometry (Fortessa, Becton Dickinson).
# Cells were incubated with vehicle or with IC50 Ironomycin for 24 hours. […] (FIG. 4)
# [13] = system: Phospho-H2A.X (S139); experiment: Western blot of Phospho-H2A.X (S139), DNA damage response; type: cell-based, human; details: 100 nM for Jeko-1 and 500 nM for JVM-2, 24H
# Experimental: Cells were treated with Ironomycin (100 nM for Jeko-1 and 500 nM for JVM-2) during 24H. Protein levels of Phospho-H2A.X (S139) were analyzed by western blot and normalized by β-actin protein level.
# as §8
# as §9, with “Protein levels are objectified by labeling with an anti-β-actin mouse monoclonal antibody (Sigma, A5441, St Louis, Mo., USA 1/1000). Primary antibodies are visualized with secondary anti-rabbit antibodies (Sigma®, A9169) or anti-mouse antibodies (Jackson, 115-036-068) coupled to peroxidase allows the development by chemiluminescence by Western Lightning ECL (NEL121001EA, Perkin Elmer®).” left out
# Protein levels of Phospho-H2A.X (S139) were analyzed by western blot and normalized by β-actin protein level (FIG. 5).
# [14] = system: primary MCL cells; experiment: Primary MCL cells of patients cultured with CD40L, flow cytometry; type: cell-based, human
# Experimental: as §1
# These first results were further completed by additional experiments: primary MCL cell were treated with Ironomycin (C) or AM-23 (D) and incubated during 96H with recombinant CD40L.
# Results represent the median±IQR of each population cells of nine (C) and six patients (D), respectively. Statistical significance was tested using t-test of pairs: * P<0.05, ** P<0.01 *** P<0.001, **** P<0.0001 and NS: non-significant.
# as §2, §3
# The toxicity on MCL cells was analyzed by flow cytometry and expressed in % of control.
# [15] = Homo sapiens, 96 h, read-out: reduction of the median number of viable primary MCL cells
smiles,measurement,setting,value
C#CCN[C@@H]1C=C[C@]2(O[C@H]([C@@H](CC)C(=O)[C@@H](C)[C@@H](O)[C@H](C)[C@@H]3O[C@@H]([C@@H](CC)C(=O)O)CC[C@@H]3C)[C@@H](C)C[C@H]2C)O[C@@]12CC[C@@](C)([C@H]1CC[C@](O)(CC)[C@H](C)O1)O2 [Ironomycin],interaction effect in combination with Doxorubicin,[1],synergistic effect
same,interaction effect in combination with Ibrutinib (BTK inhibitor),[1],synergistic effect
same,interaction effect in combination with Venetoclax (Bcl2 inhibitor),[1],synergistic effect
same,toxicity for non-tumor cells from the microenvironment,[2],without major toxicity
same,toxicity in MCL cells compared to normal cells from the microenvironment,[2],higher toxicity in MCL cells compared to normal cells
same,toxicity on hematopoietic progenitors,[3],low toxicity
same,IC50,"[4]; 96H incubation, cell viability by ATP, read-out: IC50",54.4 nM
same,IC50,"[5]; JVM-2, 96H incubation, cell viability by ATP, read-out: IC50",139 nM
same,IC50,"[6]; Rec1, REC-1, 96H incubation, cell viability by ATP, read-out: IC50",53.4 nM
same,IC50,"[7]; JEKO-1, 96H incubation, cell viability by ATP, read-out: IC50",12.8 nM
same,IC50,"[8]; GRANTA-519, 96H incubation, cell viability by ATP, read-out: IC50",802 nM
same,IC50,"[9]; Maver1, MAVER-1, 96H incubation, cell viability by ATP, read-out: IC50",50.5 nM
same,apoptosis monitored by Annexin V staining,[10],induces apoptosis
same,CDK4 protein levels,[11],downregulation
same,Cyclin D1 protein level,[11],significant downregulation
same,RB phosphorylation,[11],downregulation
same,cell cycle,[12],induces MCL cell cycle defect
same,DNA damage response (Serine 139 phosphorylation of H2A.X),[13],induces DNA damage response
same,median number of viable primary MCL cells (first experiment),"[14]; 20 nM, 50 nM and 100 nM, 96H with CD40L, N=5",significantly reduced
same,cytotoxicity at 0.02 µM,[14]; [15],30%
same,cytotoxicity at 0.05 µM,[14]; [15],46%
same,cytotoxicity at 0.1 µM,[14]; [15],53%
CC[C@@H](C(=O)[C@@H](C)[C@@H](O)[C@H](C)[C@@H]1O[C@@H]([C@@H](CC)C(=O)O)CC[C@@H]1C)[C@H]1O[C@]2(C=C[C@@H](NC3CC3)[C@]3(CC[C@@](C)([C@H]4CC[C@](O)(CC)[C@H](C)O4)O3)O2)[C@H](C)C[C@@H]1C [AM-23],IC50,[4]; 96 h,43 nM
same,IC50,"[5]; JVM-2, 96 h",58 nM
same,IC50,"[6]; Rec1, 96 h",6.8 nM
same,IC50,"[7]; JeKo-1, 96 h",8 nM
same,IC50,"[8]; Granta-519, 96 h",845 nM
same,IC50,"[9]; Maver1, 96 h",17.3 nM
same,cytotoxicity at 0.01 µM,[14]; [15],34%
same,cytotoxicity at 0.02 µM,[14]; [15],58%
same,cytotoxicity at 0.05 µM,[14]; [15],60%
same,cytotoxicity at 0.1 µM,[14]; [15],64%
